In patent US9629365B2, “Macrocyclic picolinamides compounds with fungicidal activity” (DOW AGROSCIENCES LLC, priority 2013, dated 2017):
Where two headings read alike, the source gives them in different places.

Key:
Alternaria solani = assay: Tomato Early Blight (ALTESO) fungicidal activity; type: in vivo; details: 24 h, 1 Day Protectant, tomato plants, read-out: ALTESO Disease Control 1DP
Puccinia triticina = assay: Wheat Brown Rust (PUCCRT) fungicidal activity; type: in vivo; details: for pest or weed control at 100 ppm: rate 100 ppm (high volume application); for pest or weed control at 121.5 g/ha: rate 121.5 g/H (low volume application)
Procedure: (§1) Technical grades of materials were dissolved in acetone, which were then mixed with nine volumes of water containing 110 ppm Triton X-100. The fungicide solutions were applied onto wheat seedlings using an automated booth sprayer to run-off. All sprayed plants were allowed to air dry prior to further handling. All fungicides were evaluated using the aforementioned method for their activity vs. all target diseases. Wheat leaf blotch and brown rust activity were also evaluated using track spray applications, in which case the fungicides were formulated as EC formulations, containing 0.1% Trycol 5941 in the spray solutions. Wheat plants (variety Yuma) were grown from seed in a greenhouse in 50% mineral soil/50% soil-less Metro mix until the first leaf was fully emerged, with 7-10 seedlings per pot. These plants were inoculated with an aqueous spore suspension of Septoria tritici either prior to or after fungicide treatments. After inoculation the plants were kept in 100% relative humidity (one day in a dark dew chamber followed by two to three days in a lighted dew chamber at 20° C.) to permit spores to germinate and infect the leaf. The plants were then transferred to a greenhouse set at 20° C. for disease to develop. When disease symptoms were fully expressed on the 1st leaves of untreated plants, infection levels were assessed on a scale of 0 to 100 percent disease severity. Percent disease control was calculated using the ratio of disease severity on treated plants relative to untreated plants. Wheat plants (variety Yuma) were grown from seed in a greenhouse in 50% mineral soil/50% soil-less Metro mix until the first leaf was fully emerged, with 7-10 seedlings per pot. These plants were inoculated with an aqueous spore suspension of Puccinia triticina either prior to or after fungicide treatments. After inoculation the plants were kept in a dark dew room at 22° C. with 100% relative humidity overnight to permit spores to germinate and infect the leaf. The plants were then transferred to a greenhouse set at 24° C. for disease to develop. Fungicide formulation, application and disease assessment followed the procedures as described in the Example A.

[1] = test system: Magnaporthe grisea; Anamorph: Pyricularia oryzae; assay: whole plant or invertebrate; type: in vivo; details: 24 h, read-out: PYRIOR 1DP Disease Control at 100 ppm
Uncinula necator = assay: Grape Powdery Mildew (UNCINE) fungicidal activity; type: in vivo; details: Erysiphe necator, 24 h, 1 Day Protectant, read-out: UNCINE 1DP Disease Control at 100 ppm
[2] = test system: Mycosphaerella graminicola; Anamorph: Septoria tritici; assay: Leaf Blotch of Wheat (SEPTTR) fungicidal activity; type: in vivo; details: Zymoseptoria tritici; for pest or weed control at 100 ppm: rate 100 ppm (high volume application); for pest or weed control at 121.5 g/ha: rate 121.5 g/H (low volume application)
Procedure: as §1, with “plants.” for “plants. Wheat plants (variety Yuma) were grown from seed in a greenhouse in 50% mineral soil/50% soil-less Metro mix until the first leaf was fully emerged, with 7-10 seedlings per pot. These plants were inoculated with an aqueous spore suspension of Puccinia triticina either prior to or after fungicide treatments. After inoculation the plants were kept in a dark dew room at 22° C. with 100% relative humidity overnight to permit spores to germinate and infect the leaf. The plants were then transferred to a greenhouse set at 24° C. for disease to develop. Fungicide formulation, application and disease assessment followed the procedures as described in the Example A.”

Venturia inaequalis = assay: Apple Scab (VENTIN) fungicidal activity; type: in vivo; details: 24 h, 1 Day Protectant, read-out: VENTIN 1DP Disease Control at 100 ppm
[3] = test system: Blumeria graminis f. Sp. Hordei; assay: Barley Powdery Mildew (ERYSGH) fungicidal activity; type: in vivo; details: 24 h, 1 Day Protectant, barley seedlings, read-out: ERYSGH Disease Control 1DP
Erysiphe cichoracearum = assay: Powdery Mildew of Cucumber (ERYSCI) fungicidal activity; type: in vivo; details: Golovinomyces cichoracearum, topical, 24 h, 1 Day Protectant, cucumber seedlings, read-out: ERYSCI Disease Control 1DP
Cercospora beticola = assay: Leaf Spot of Sugar Beets (CERCBE) fungicidal activity; type: in vivo; details: topical, 24 h, 1 Day Protectant, sugar beet plants, read-out: CERCBE Disease Control 1DP
Leptosphaeria nodorum = assay: Wheat Glume Blotch (LEPTNO) fungicidal activity; type: in vivo; details: Parastagonospora nodorum, 24 h, 1 Day Protectant, read-out: LEPTNO 1DP Disease Control at 100 ppm
Procedure: Technical grades of materials were dissolved in acetone, which were then mixed with nine volumes of water containing 110 ppm Triton X-100. The fungicide solutions were applied onto wheat seedlings using an automated booth sprayer to run-off. All sprayed plants were allowed to air dry prior to further handling. All fungicides were evaluated using the aforementioned method for their activity vs. all target diseases. Wheat leaf blotch and brown rust activity were also evaluated using track spray applications, in which case the fungicides were formulated as EC formulations, containing 0.1% Trycol 5941 in the spray solutions. Wheat plants (variety Yuma) were grown from seed in a greenhouse in 50% mineral soil/50% soil-less Metro mix until the first leaf was fully emerged, with 7-10 seedlings per pot. These plants were inoculated with an aqueous spore suspension of Septoria tritici either prior to or after fungicide treatments. […] When disease symptoms were fully expressed on the 1st leaves of untreated plants, infection levels were assessed on a scale of 0 to 100 percent disease severity. Percent disease control was calculated using the ratio of disease severity on treated plants relative to untreated plants. […]

Rhyncosporium secalis = assay: Barley Scald (RHYNSE) fungicidal activity; type: in vivo; details: Hordeum vulgare, 24 h, 1 Day Protectant, read-out: RHYNSE 1DP Disease Control at 100 ppm
Phakopsora pachyrhizi = assay: Asian Soybean Rust (PHAKPA) fungicidal activity; type: in vivo; details: topical, soybean plants
Procedure: Technical grades of materials were dissolved in acetone, which were then mixed with nine volumes of water containing 0.011% Tween 20. The fungicide solutions were applied onto soybean seedlings using an automated booth sprayer to run-off. All sprayed plants were allowed to air dry prior to further handling.
Soybean plants (variety Williams 82) were grown in soil-less Metro mix, with one plant per pot. Two weeks old seedlings were used for testing. Plants were inoculated either 3 days prior to or 1 day after fungicide treatments. Plants were incubated for 24 h in a dark dew room at 22° C. and 100% RH then transferred to a growth room at 23° C. for disease to develop. Disease severity was assessed on the sprayed leaves.

[4] = test system: Glomerella lagenarium; Anamorph: Colletotrichum lagenarium; assay: Cucumber Anthracnose (COLLLA) fungicidal activity; type: in vivo; details: Colletotrichum orbiculare, 24 h, 1 Day Protectant, cucumber seedlings, read-out: COLLLA Disease Control 1DP
[5] = 24 h, 1 Day Protectant, read-out: PUCCRT 1DP disease control
[6] = 72 h, 3 Day Curative, read-out: PUCCRT 3DC disease control
[7] = 24 h, 1 Day Protectant, read-out: SEPTTR 1DP disease control
[8] = 72 h, 3 Day Curative, read-out: SEPTTR 3DC disease control

COc1ccnc(C(=O)N[C@H]2CCC[C@H](CCC(C)C)[C@@H](OC(=O)C3CCCC3)[C@H](C)OC2=O)c1OCOC(C)=O [F96]
0 to 80%: pest or weed control at 121.5 g/ha (Puccinia triticina; [6]) | pest or weed control at 100 ppm (Venturia inaequalis) | pest or weed control at 100 ppm [3] | pest or weed control at 25 ppm (Phakopsora pachyrhizi; 72 h, 3 Day Curative, read-out: PHAKPA Disease Control 3DC)
80 to 100%: pest or weed control at 100 ppm (Alternaria solani) | pest or weed control at 100 ppm (Puccinia triticina; [5]) | pest or weed control at 121.5 g/ha (Puccinia triticina; [5]) | pest or weed control at 100 ppm (Puccinia triticina; [6]) | pest or weed control at 100 ppm [1] | pest or weed control at 100 ppm (Uncinula necator) | pest or weed control at 100 ppm [2, 7] | pest or weed control at 121.5 g/ha [2, 7] | pest or weed control at 100 ppm [2, 8] | pest or weed control at 121.5 g/ha [2, 8] | pest or weed control at 100 ppm (Erysiphe cichoracearum) | pest or weed control at 100 ppm (Cercospora beticola) | pest or weed control at 100 ppm (Leptosphaeria nodorum) | pest or weed control at 100 ppm (Rhyncosporium secalis) | pest or weed control at 25 ppm (Phakopsora pachyrhizi; 24 h, 1 Day Protectant, read-out: PHAKPA Disease Control 1DP) | pest or weed control at 100 ppm [4]

CO[C@@H]1[C@@H](CCC(C)C)CCC[C@H](N)C(=O)O[C@H]1C.Cl
218 to 220 °C: melting point

COc1ccnc(C(=O)N[C@H]2CCC[C@H](Cc3ccc(F)cc3)[C@@H](OCC3CC3)[C@H](C)OC2=O)c1O [F10]
0 to 80%: pest or weed control at 121.5 g/ha (Puccinia triticina; [6])
80 to 100%: pest or weed control at 100 ppm (Puccinia triticina; [5]) | pest or weed control at 121.5 g/ha (Puccinia triticina; [5]) | pest or weed control at 100 ppm (Puccinia triticina; [6]) | pest or weed control at 100 ppm [2, 7] | pest or weed control at 121.5 g/ha [2, 7] | pest or weed control at 100 ppm [2, 8] | pest or weed control at 121.5 g/ha [2, 8]
